Several values for one entry are separate records, joined by “and”; a condition that tells them apart may be missing. Equal entries are not always repeated.
system: P. falciparum 3D7 growth, pLDH absorbance; test: P. falciparum 3D7 growth inhibition, dose response, strain 3D7 (AID 2305)

First: CS(=O)(=O)N(c1ccc(F)cc1)c1cc(C(=O)N[C@@H](Cc2ccccc2)[C@H](O)CNCc2cccc(C(F)(F)F)c2)cc(N2CCCC2=O)c1
Second: CCNc1cc(C(=O)N[C@@H](Cc2ccccc2)[C@H](O)CNCc2cc(OC)cc(OC)c2)cc(N2CCCC2=O)c1
The IC50 of the first is 1.8-fold higher: 1.35 µM for the first, 0.74 µM for the second.

COc1cc(C(=O)NC2CC(C)(C)NC(C)(C)C2)ccc1-c1cc2cc(Cl)c(Cl)cc2[nH]1 and O=C(NC1CCN(Cc2ccccc2)CC1)c1cccc(-c2cc3cc(Cl)c(Cl)cc3[nH]2)c1 are the same in IC50: 0.72 µM for the first, 0.72 µM for the second.

O=C(NC1CC1)c1ccc(N2CCC(COc3cccc(F)c3)CC2)nc1 and COc1ccc(Nc2nccc(N3CCC(NC(=O)Nc4cc(C)ccc4C)C3)n2)cc1 (stereo unspecified) are within 1.5-fold of each other in IC50: 1.24 µM for the first, 0.9 µM for the second.

O=C(Nc1cccc(-c2cccc(-c3nc4ccc(F)cc4[nH]3)c2)c1)c1ccncc1 and O=C(Cc1cnc[nH]1)Nc1ccc(-c2cccc(-c3nc4ccc(C(F)(F)F)cc4[nH]3)c2)cc1 are within 1.5-fold of each other in IC50: 0.51 µM for the first, 0.74 µM for the second.

First: CCCCCCCN(CCCCCCC)CCNc1cc(C)nc2ccccc12
Second: CCCCN(CCCC)Cc1cc(Nc2ccnc3cc(Cl)ccc23)ccc1O
The IC50 of the first is 17-fold higher: 0.34 µM for the first, 0.02 µM for the second. The second is the more potent here.

CCOc1ccc(C(=O)Nc2cc3c(c(C(F)(F)F)c2)CCNC3)cc1Cl and CCOc1ccc(Br)cc1/C=C/C(=O)Nc1ccc2c(c1)CN(C)CCC2 are within 1.5-fold of each other in IC50: 1.06 µM for the first, 0.82 µM for the second.

First: COc1ccc(S(=O)(=O)NCC2CCCN(CCCCCNC(=O)/C=C/c3ccc(Cl)c(Cl)c3)C2)cc1 (stereo unspecified)
Second: O=C(C=Cc1ccc(Cl)c(Cl)c1)NCCCCCN1CCC(CCNC(=O)c2cccc3ccccc23)CC1
The IC50 of the first is 1.5-fold lower: 1.06 µM for the first, 1.59 µM for the second.

Nc1nc(N)c2c(ccc3c2ccn3Cc2ccc(OCc3ccccc3)cc2)n1 and FC(F)(F)c1cc(Nc2ncnc3ccc(Br)cc23)ccc1OCc1ccccc1 are within 1.5-fold of each other in IC50: 0.93 µM for the first, 1.08 µM for the second.

First: CC(C)(C)c1cc(C(=O)Nc2ccc(C(=N)N)cc2)c(O)c(C(C)(C)C)c1
Second: COCCn1c(C)cc(C(=O)CN2C(=O)NC(C)(c3ccc(C(C)(C)C)cc3)C2=O)c1C (stereo unspecified)
The IC50 of the first is 1.6-fold higher: 0.76 µM for the first, 0.47 µM for the second. The second is the more potent here.

First: CN1CCC(C(=O)Nc2ccc(-c3ccc(-c4nc5ccccc5[nH]4)cc3)cc2)CC1
Second: O=C(Nc1ccc(-c2ccc(-c3nc4ccccc4[nH]3)s2)cc1)Nc1ccc(Cl)c(Cl)c1
The IC50 of the first is 6.1-fold higher: 0.98 µM for the first, 0.16 µM for the second. The second is the more potent here.

Compared with CCCn1c(Sc2ccc(C#N)c([N+](=O)[O-])c2)nnc1-c1cc(OC)cc(OC)c1, CC(C)Cn1c(Sc2ccc(C#N)c([N+](=O)[O-])c2)nnc1-c1ccc(N(C)C)cc1 is 3.3-fold lower in IC50: 0.72 µM for the first, 0.22 µM for the second. The second is the more potent here.

O=C(Nc1ccc(F)cc1)c1nc2ccccc2nc1Cl and CC(C)NCc1cccc(-c2ccc(NC(=O)c3ccc(C#N)cc3)cc2)c1 are within 1.5-fold of each other in IC50: 1.23 µM for the first, 0.83 µM for the second.

Going from CC1(C)N=C(N)N=C(N)N1c1ccc(Oc2ccc(Cl)cc2)c(Cl)c1 to COc1cccc(C(=O)NCc2n[nH]c(=S)n2-c2ccc(Cl)c(Cl)c2)c1, the IC50 rises from 0.08 µM to 0.17 µM (2.1-fold).

Compared with OC(CN1CCN(Cc2ccccc2)CC1)Cn1c(-c2ccccc2)c(-c2ccccc2)c2ccccc21 (stereo unspecified), O=C(Nc1cccc(CN2CCN(Cc3cccc(O)c3)CC2)c1)c1cc2ccccc2s1 is 1.6-fold higher in IC50: 0.71 µM for the first, 1.12 µM for the second.

O=C(Cn1c(CCc2cccc(F)c2F)nc(=O)c2ccccc21)N(CCCN1CCCCC1)Cc1ccc(-c2ccc(C(F)(F)F)cc2)cc1 and CC(C)N1CCC(N(Cc2ccc(-c3ccc(C(F)(F)F)cc3)cc2)C(=O)Cn2c(SCc3cccc(F)c3F)nc(=O)c3ccccc32)CC1 are within 1.5-fold of each other in IC50: 0.76 µM for the first, 1.05 µM for the second.

COc1ccc(-c2c3c(=O)n(C)c(=O)n(C)c3c3nnc4ccccc4n23)cc1 and COCc1cccc(-c2cc(-c3ccc(S(C)(=O)=O)cc3)cnc2N)c1 are within 1.5-fold of each other in IC50: 0.99 µM for the first, 1 µM for the second.

Going from COc1ccc(-c2ccc(NC(=O)c3ccc(Cl)cc3)cc2)cc1CN1CCNCC1 to CC(C)c1ccc(NC(=O)c2ccc(CN3CCCN(Cc4cccc(Cl)c4)CC3)cc2)cc1, the IC50 rises from 0.13 µM to 1.16 µM (8.9-fold). The first is the more potent here.

COC(=O)C1=CNC=C(C(=O)OC)C1c1ccc(Cl)c([N+](=O)[O-])c1 and Cn1cc(-c2ccccc2C(=O)O)c(=O)c2cc(Cl)ccc21 are within 1.5-fold of each other in IC50: 0.68 µM for the first, 0.92 µM for the second.

Nc1c2c(nc3ccc(C(=O)Nc4cc(I)c(O)c(I)c4)cc13)CCCC2 and O=C(Nc1ccon1)c1cc(-c2cccnc2)nc2ccc(Br)cc12 are within 1.5-fold of each other in IC50: 1.01 µM for the first, 0.74 µM for the second.

Cc1cc2c(cc1C(F)(F)F)N(C(=O)Nc1cnc(OCCN(C)C)c(C(F)(F)F)c1)CC2 and CN(Cc1cc(C(F)(F)F)cc(C(F)(F)F)c1)C(=O)[C@H]1CNC[C@@H]1c1ccc(F)cc1 are within 1.5-fold of each other in IC50: 0.97 µM for the first, 0.83 µM for the second.

First: CS(=O)(=O)CCN(CCS(C)(=O)=O)Cc1ccc(-c2ccc3ncnc(Nc4ccc(OCc5cccc(F)c5)c(Cl)c4)c3c2)o1
Second: COc1cc2ncnc(Nc3ccc(OCc4ccccc4Br)c(OC)c3)c2cc1OC
The IC50 of the first is 2.4-fold higher: 1.02 µM for the first, 0.43 µM for the second. The second is the more potent here.

First: CC(C)NC(=O)c1cccc(-c2cccc(OCCN3CCSCC3c3ccccc3)c2)c1 (stereo unspecified)
Second: CC(C)CNCc1cccc(-c2ccc(CNC3CCN(Cc4ccccc4)CC3)cc2)c1
The IC50 of the first is 3.7-fold higher: 1.01 µM for the first, 0.27 µM for the second.

First: COc1cc2nc(NCCc3cccc(Cl)c3)nc(NCc3ccccc3)c2cc1OC
Second: COc1cc2nc(NCCc3ccccc3)nc(NC(C)c3ccccc3)c2cc1OC (stereo unspecified)
The IC50 of the first is 2.3-fold lower: 0.12 µM for the first, 0.28 µM for the second.

COc1ccccc1N1CCN(c2cccc3c2nc(-c2cncc(C#N)c2)n3CCNCc2ccccc2)CC1 and CCOc1ccc2ccccc2c1CNCCCCCCNCc1c(OCC)ccc2ccccc12 are within 1.5-fold of each other in IC50: 0.71 µM for the first, 0.58 µM for the second.

Cc1cc(C(=O)CN2C(=O)NC3(CCCc4ccccc43)C2=O)c(C)n1Cc1ccc(F)cc1 (stereo unspecified) and O=C(OCC1CCN(Cc2ccccc2)C1)c1ccc(Cl)cc1 (stereo unspecified) are within 1.5-fold of each other in IC50: 0.97 µM for the first, 0.68 µM for the second.

Cc1ccc(Nc2nc(NN=Cc3cccc([N+](=O)[O-])c3)nc(Nc3ccccc3)n2)c(C)c1 and Cc1nnc(NC(=O)c2cn(-c3ccccc3)nc2-c2ccccc2C)o1 are within 1.5-fold of each other in IC50: 0.63 µM for the first, 0.56 µM for the second.

First: CC(Nc1ccc2c(c1)CCC2)C(=O)Nc1cc(C(F)(F)F)ccc1N1CCOCC1 (stereo unspecified)
Second: CCCCCN1CCCC(CNS(=O)(=O)c2ccc(C(=O)Nc3ccc(C(F)(F)F)cc3)cc2)C1 (stereo unspecified)
The IC50 of the first is 10-fold lower: 0.09 µM for the first, 0.92 µM for the second.

NC(=NCc1ccc(O)cc1)Nc1nc(-c2ccc(OCCCn3ccnc3)cc2)cs1 and Nc1ncnc2c1ncn2C(CO)Cc1ccc(O)cc1 (stereo unspecified) are within 1.5-fold of each other in IC50: 0.75 µM for the first, 1.03 µM for the second.

Compared with Cc1cc(=O)[nH]c(-n2nc(C)cc2NC(=O)CC(c2ccccc2)c2ccccc2)n1, Cc1cc(Nc2ccc(C)c(Cl)c2)n2ncnc2n1 is 2-fold lower in IC50: 1.1 µM for the first, 0.55 µM for the second. The second is the more potent here.

O=c1ccc(-c2nc3cc(Cl)c(Cl)cc3n2Cc2ccc(Cl)cc2Cl)c[nH]1 and O=c1cc(NCCCCNCc2ccc(Br)c(Br)c2)[nH]c2ccccc12 are within 1.5-fold of each other in IC50: 1.11 µM for the first, 0.86 µM for the second.

Going from CS(=O)(=O)NCCCNCc1ccc(-c2ccc(-c3nc4ccc(F)cc4[nH]3)cc2)cc1 to CC(Cc1ccc(C(=O)Nc2ccc(CC(C)NCCc3cccc(Cl)c3)cc2)cc1)NCCc1ccc(C(F)(F)F)cc1 (stereo unspecified), the IC50 falls from 0.93 µM to 0.57 µM (1.6-fold). The second is the more potent here.

CCOc1ccc(CCC(=O)O)cc1OCC and CCOc1cc(Cc2cnc(N)nc2N)cc(OC)c1OC are within 1.5-fold of each other in IC50: 1.03 µM for the first, 0.91 µM for the second.

COc1ccc(CN2CCC(NCc3ccc(C(F)(F)F)cc3)CC2)cc1 and CCc1sc(-c2cc(Cl)ccc2OC)nc1C(=O)NCCN1CCCCC1 are within 1.5-fold of each other in IC50: 0.92 µM for the first, 0.94 µM for the second.

Compared with Cc1cc(Cl)c(S(=O)(=O)NC2CCCC2)cc1OCC(=O)NC1CCCCC1, CCCOc1cc(Cc2cnc(N)nc2N)cc(OC)c1OC is 3.1-fold higher in IC50: 0.38 µM for the first, 1.17 µM for the second. The first is the more potent here.

CCOC(=O)CNC(=O)N1CCN(C(=O)NCC(=O)OCC)CC1 and CCCCOc1ccc(C(=O)C(CCC(CNC(C)(C)C)C(=O)c2ccc(OCCCC)cc2)CNC(C)(C)C)cc1 (stereo unspecified) are within 1.5-fold of each other in IC50: 0.85 µM for the first, 1.02 µM for the second.

For O=C(/C=C/c1ccc(Cl)cc1)NC1CCC(CN2CCC(c3c[nH]c4ccccc34)CC2)CC1 (stereo unspecified), the IC50 was 0.8 µM and 0.73 µM.
